Earlier results on one compound are cited in patent US12371748B2, “Genetic markers for predicting responsiveness to therapy with HDL-raising or HDL mimicking agent” (Hoffmann-La Roche Inc., priority 2014, dated 2025).

One data set concerns the target T1, CETP (Oryctolagus cuniculus, UniProt P22687).
T1 construct: host or cells: rabbits (in vivo; endogenous plasma CETP)
T1 sequence (P22687 2-497): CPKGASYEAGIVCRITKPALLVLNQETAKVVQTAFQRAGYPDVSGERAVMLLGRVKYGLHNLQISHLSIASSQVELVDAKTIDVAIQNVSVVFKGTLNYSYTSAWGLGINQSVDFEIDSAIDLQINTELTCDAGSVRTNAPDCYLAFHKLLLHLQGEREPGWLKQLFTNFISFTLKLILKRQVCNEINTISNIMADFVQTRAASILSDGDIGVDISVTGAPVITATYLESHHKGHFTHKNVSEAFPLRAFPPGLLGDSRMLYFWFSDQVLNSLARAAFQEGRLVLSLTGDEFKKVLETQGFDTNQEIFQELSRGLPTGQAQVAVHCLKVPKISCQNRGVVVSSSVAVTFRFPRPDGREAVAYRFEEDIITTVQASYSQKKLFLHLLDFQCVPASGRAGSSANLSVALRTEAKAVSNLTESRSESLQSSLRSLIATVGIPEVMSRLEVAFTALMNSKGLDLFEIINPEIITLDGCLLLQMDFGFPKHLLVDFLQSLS
The conditions noted are these: rabbits; cited from earlier work.

The conditions of data set [1]: rabbits; cited from earlier work.

Regarding `CCC(CC)CC1(C(=O)Nc2ccccc2SC(=O)C(C)C)CCCCC1` [dalcetrapib, thioisobutyric acid S-(2-{[1-(2-ethyl-butyl)-cyclohexanecarbonyl]-amino}-phenyl) ester], the CETP activity entry on CETP is on record as “inhibitor of CETP activity”. Further, in data set [1], the LDL cholesterol entry was “decrease LDL cholesterol” and the “plasma HDL cholesterol” value is listed as “increase plasma HDL cholesterol”.
